These results are taken from patent US10793538B2, “Cycloalkenyl hydroxamic acid derivatives and their use as histone deacetylase inhibitors” (The Broad Institute, Inc., priority 2012, dated 2020).

Experiment in all cases: HDAC isoform inhibition, microfluidic lab-on-a-chip (Caliper) assay
One assay deals with T1, HDAC9 (Homo sapiens, UniProt Q9UKV0).
T1 construct: purchased BPS Bioscience
It is filed as biochemical. The conditions noted are these: HDAC isoform 9; 2 μM FAM-labeled acetylated peptide substrate, 60 min, room temperature.

In a further assay the target is T2, HDAC6 (Homo sapiens, UniProt Q9UBN7).
T2 construct: purchased BPS Bioscience
T2 sequence (Q9UBN7 1-1215): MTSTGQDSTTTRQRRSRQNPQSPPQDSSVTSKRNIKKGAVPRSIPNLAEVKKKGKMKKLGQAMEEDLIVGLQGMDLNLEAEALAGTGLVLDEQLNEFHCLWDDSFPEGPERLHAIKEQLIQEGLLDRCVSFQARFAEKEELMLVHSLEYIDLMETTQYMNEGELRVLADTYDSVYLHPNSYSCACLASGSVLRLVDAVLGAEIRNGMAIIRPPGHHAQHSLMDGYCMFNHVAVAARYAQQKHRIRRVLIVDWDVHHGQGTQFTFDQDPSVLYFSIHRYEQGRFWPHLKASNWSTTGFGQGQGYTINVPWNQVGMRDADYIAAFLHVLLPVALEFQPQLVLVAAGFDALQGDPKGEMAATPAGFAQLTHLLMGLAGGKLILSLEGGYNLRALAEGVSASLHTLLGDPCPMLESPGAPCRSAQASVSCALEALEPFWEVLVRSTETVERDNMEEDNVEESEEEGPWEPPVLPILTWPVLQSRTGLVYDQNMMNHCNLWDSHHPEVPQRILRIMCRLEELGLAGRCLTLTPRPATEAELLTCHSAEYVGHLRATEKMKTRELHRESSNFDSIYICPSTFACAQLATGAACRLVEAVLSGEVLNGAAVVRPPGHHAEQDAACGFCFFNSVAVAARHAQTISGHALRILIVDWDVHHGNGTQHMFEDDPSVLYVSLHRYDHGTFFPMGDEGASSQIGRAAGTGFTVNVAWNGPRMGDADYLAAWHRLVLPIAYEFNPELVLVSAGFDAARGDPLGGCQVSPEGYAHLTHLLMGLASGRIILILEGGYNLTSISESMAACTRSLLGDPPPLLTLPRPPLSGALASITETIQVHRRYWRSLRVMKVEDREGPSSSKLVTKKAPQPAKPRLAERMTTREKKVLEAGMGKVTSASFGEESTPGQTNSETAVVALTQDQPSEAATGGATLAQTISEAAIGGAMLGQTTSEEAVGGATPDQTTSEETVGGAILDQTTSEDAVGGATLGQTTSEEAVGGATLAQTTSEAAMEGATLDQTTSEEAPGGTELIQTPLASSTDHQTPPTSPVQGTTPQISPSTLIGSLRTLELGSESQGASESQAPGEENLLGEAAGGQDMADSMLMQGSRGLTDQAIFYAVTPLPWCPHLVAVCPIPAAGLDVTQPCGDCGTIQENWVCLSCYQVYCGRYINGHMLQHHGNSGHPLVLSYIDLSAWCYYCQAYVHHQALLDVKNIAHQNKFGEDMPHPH
In kind it is biochemical. The conditions noted are these: HDAC isoform 6; 2 μM FAM-labeled acetylated peptide substrate, 60 min, room temperature.

A further assay addresses T3, HDAC5 (Homo sapiens, UniProt Q9UQL6).
T3 construct: purchased BPS Bioscience
In kind it is biochemical. The conditions noted are these: HDAC isoform 5; 2 μM FAM-labeled acetylated peptide substrate, 60 min, room temperature.

The next assay addresses T4, HDAC3 (Homo sapiens, UniProt O15379).
T4 construct: purchased BPS Bioscience
It is filed as biochemical. The conditions noted are these: HDAC isoform 3; 2 μM FAM-labeled acetylated peptide substrate, 60 min, room temperature.

Another assay has as its target T5, HDAC2 (Homo sapiens, UniProt Q92769).
T5 construct: purchased BPS Bioscience
It is filed as biochemical. The note with it: HDAC isoform 2; 2 μM FAM-labeled acetylated peptide substrate, 60 min, room temperature.

In the next assay the target is T6, HDAC7 (Homo sapiens, UniProt Q8WUI4).
T6 construct: purchased BPS Bioscience
T6 sequence (Q8WUI4 1-952): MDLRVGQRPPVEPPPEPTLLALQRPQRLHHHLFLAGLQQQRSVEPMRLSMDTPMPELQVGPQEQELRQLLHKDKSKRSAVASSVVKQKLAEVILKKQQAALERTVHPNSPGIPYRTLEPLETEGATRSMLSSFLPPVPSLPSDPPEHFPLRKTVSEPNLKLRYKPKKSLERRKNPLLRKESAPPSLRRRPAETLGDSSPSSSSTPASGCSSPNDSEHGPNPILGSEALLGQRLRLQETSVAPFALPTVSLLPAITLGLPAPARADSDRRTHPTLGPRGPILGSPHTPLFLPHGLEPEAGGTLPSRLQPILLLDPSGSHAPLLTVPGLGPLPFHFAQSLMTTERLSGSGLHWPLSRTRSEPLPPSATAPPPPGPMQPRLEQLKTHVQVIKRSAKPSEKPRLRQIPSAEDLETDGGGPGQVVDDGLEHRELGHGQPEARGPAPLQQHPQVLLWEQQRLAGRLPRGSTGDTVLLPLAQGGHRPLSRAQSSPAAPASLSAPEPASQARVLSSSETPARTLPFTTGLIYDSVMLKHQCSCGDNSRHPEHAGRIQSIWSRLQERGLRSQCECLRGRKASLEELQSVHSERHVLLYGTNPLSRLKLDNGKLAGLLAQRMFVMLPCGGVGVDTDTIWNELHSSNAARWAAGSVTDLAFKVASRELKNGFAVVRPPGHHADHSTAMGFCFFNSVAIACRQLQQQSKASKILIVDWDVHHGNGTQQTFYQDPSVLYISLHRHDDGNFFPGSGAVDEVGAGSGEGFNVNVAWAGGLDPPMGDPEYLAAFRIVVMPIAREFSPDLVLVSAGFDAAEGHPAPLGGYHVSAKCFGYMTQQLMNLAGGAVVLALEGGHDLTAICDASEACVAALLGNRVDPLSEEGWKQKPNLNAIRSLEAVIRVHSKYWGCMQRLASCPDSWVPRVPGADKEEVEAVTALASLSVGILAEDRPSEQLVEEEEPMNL
In kind it is biochemical. The note with it: HDAC isoform 7; 2 μM FAM-labeled acetylated peptide substrate, 60 min, room temperature.

The target of another assay is HDAC4 (Homo sapiens, UniProt P56524).
Another assay concerns the target T7, HDAC8 (Homo sapiens, UniProt Q9BY41).
T7 construct: purchased BPS Bioscience
T7 sequence (Q9BY41 1-377): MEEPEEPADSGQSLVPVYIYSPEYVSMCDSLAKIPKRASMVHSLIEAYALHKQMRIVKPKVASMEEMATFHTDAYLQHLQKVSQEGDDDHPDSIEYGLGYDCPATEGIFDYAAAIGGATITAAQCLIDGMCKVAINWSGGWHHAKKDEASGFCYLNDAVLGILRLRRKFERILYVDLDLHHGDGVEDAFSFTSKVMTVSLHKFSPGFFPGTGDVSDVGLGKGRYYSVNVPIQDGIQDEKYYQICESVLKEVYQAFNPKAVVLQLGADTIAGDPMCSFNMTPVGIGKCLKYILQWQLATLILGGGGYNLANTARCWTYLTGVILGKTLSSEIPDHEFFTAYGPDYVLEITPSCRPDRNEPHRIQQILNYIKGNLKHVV
In kind it is biochemical. The note with it: HDAC isoform 8; 2 μM FAM-labeled acetylated peptide substrate, 60 min, room temperature.

The target in the next assay is T8, HDAC1 (Homo sapiens, UniProt Q13547).
T8 construct: purchased BPS Bioscience
In kind it is biochemical. The conditions noted are these: HDAC isoform 1; 2 μM FAM-labeled acetylated peptide substrate, 60 min, room temperature.

T4 sequence (O15379 whole entry): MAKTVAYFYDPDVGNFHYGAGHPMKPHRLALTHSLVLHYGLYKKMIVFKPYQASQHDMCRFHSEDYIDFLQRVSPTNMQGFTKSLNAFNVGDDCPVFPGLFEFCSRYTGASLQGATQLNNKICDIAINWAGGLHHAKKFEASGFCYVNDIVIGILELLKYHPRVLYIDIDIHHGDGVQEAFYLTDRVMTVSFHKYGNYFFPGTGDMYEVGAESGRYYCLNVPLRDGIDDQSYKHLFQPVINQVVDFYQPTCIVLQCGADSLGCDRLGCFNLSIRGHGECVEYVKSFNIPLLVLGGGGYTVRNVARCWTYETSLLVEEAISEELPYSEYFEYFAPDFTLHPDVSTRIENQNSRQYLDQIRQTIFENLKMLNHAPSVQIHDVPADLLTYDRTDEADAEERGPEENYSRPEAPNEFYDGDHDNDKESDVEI
T4 sequence (Q9Y618 395-489 partner limits assumed): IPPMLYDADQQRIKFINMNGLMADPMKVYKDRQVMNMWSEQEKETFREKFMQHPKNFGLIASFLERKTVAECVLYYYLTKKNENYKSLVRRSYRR
T3 sequence (Q9UQL6 whole entry): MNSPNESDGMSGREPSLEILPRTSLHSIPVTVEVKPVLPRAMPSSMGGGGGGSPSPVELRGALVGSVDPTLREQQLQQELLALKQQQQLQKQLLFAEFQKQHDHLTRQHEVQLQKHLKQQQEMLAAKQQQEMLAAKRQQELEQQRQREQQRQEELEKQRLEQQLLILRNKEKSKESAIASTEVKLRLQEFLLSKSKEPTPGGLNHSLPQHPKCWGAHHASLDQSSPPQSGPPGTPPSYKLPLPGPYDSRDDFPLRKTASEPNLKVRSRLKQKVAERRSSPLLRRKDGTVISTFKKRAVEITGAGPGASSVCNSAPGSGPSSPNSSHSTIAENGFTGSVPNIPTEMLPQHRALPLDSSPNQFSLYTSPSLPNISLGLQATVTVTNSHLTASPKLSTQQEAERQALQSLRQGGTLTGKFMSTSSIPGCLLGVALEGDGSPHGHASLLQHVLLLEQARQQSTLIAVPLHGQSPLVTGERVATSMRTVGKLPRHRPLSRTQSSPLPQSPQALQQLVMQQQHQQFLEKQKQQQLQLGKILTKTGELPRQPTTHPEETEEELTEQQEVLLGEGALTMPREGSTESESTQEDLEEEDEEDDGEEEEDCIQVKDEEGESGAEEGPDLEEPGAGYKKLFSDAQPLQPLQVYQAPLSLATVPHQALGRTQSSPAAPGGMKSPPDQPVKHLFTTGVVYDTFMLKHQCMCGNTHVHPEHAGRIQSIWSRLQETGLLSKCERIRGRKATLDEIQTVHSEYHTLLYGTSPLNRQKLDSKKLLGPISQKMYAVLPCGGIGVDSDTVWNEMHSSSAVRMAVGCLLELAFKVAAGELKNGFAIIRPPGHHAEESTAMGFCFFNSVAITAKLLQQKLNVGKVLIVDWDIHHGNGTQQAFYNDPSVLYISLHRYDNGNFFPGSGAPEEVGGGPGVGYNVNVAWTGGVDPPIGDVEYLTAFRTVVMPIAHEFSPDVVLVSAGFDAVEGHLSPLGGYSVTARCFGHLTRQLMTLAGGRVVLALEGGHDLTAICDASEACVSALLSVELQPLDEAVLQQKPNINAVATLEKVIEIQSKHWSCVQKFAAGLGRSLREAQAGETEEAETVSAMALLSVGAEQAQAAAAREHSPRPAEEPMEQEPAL
T1 sequence (Q9UKV0 whole entry): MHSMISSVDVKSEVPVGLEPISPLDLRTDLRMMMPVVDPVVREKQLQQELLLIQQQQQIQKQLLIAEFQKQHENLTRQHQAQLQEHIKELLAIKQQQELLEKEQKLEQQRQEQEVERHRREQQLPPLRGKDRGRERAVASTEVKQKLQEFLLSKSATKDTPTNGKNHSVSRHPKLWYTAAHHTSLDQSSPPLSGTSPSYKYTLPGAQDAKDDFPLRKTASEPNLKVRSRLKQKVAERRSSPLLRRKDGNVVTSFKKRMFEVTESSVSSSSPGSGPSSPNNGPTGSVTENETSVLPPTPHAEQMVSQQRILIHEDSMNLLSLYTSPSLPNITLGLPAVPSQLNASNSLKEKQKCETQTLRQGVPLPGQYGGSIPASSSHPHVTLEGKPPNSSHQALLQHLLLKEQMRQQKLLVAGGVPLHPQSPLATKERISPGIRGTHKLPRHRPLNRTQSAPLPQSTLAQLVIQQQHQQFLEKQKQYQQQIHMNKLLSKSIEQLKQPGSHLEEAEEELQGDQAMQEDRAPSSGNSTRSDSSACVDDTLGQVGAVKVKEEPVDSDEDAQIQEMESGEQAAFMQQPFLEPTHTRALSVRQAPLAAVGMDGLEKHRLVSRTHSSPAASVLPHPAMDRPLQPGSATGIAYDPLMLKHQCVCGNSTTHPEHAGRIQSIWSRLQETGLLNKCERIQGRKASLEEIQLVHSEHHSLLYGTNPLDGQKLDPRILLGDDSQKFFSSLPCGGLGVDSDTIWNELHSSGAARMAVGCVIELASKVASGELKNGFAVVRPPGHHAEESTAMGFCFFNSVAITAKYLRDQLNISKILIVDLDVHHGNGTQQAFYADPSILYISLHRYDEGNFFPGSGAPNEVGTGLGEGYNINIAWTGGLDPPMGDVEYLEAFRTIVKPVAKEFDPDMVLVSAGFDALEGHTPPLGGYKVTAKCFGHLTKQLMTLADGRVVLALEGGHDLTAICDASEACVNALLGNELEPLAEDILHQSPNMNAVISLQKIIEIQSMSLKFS
T8 sequence (Q13547 whole entry): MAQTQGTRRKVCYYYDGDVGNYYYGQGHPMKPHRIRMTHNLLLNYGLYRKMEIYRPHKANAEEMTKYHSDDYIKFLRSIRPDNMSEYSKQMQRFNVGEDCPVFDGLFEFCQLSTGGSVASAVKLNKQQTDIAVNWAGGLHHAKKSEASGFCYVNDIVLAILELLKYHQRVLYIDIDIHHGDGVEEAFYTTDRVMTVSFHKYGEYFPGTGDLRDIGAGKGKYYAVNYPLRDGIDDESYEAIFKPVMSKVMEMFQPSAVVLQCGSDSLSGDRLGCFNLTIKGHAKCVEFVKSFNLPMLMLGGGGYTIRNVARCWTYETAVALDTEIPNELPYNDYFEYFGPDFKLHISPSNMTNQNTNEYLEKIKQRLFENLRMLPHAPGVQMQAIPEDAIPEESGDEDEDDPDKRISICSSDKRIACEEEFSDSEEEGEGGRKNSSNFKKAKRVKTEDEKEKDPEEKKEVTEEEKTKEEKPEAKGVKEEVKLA
Chain of HDAC4 (P56524 whole entry): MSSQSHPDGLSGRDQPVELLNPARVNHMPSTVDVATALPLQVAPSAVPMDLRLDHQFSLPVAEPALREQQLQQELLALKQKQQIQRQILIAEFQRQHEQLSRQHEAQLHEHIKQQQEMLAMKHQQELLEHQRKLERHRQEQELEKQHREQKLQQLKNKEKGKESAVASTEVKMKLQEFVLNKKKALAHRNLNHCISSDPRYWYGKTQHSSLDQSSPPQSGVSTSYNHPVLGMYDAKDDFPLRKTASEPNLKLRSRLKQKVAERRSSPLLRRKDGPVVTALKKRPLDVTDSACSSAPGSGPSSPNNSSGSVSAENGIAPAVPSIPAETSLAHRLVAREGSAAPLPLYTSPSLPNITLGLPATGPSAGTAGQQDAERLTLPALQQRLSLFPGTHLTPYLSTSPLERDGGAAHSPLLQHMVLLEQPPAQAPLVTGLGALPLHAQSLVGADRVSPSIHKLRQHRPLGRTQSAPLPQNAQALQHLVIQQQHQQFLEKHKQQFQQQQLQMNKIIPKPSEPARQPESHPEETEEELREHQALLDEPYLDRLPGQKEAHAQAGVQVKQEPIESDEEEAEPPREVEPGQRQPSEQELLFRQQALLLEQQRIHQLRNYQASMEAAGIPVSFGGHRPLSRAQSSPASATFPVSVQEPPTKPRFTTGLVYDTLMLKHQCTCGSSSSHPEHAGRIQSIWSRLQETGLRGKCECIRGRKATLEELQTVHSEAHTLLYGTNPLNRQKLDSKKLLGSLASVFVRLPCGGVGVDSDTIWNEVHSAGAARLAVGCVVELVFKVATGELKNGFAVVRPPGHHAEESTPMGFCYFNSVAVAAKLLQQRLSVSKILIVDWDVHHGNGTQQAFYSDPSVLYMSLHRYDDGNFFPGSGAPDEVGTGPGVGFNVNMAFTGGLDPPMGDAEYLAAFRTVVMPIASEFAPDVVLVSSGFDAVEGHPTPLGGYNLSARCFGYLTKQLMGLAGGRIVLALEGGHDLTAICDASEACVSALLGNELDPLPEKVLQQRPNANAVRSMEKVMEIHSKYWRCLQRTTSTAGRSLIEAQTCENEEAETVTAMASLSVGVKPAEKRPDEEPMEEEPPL
T5 sequence (Q92769 whole entry): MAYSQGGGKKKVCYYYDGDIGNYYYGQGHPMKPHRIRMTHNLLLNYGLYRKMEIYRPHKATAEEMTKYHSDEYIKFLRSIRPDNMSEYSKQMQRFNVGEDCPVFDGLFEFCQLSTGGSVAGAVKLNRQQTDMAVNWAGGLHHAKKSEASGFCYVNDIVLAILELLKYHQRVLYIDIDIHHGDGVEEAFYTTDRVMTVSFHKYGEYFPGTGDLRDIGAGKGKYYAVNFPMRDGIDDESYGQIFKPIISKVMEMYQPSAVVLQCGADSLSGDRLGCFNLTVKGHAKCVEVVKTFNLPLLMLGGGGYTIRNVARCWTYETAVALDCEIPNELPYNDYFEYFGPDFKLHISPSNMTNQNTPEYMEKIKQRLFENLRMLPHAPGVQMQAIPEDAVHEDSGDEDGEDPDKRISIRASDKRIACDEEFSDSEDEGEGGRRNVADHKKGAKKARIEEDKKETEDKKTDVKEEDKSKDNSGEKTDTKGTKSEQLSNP
Description for HDAC4: The following microfluidic lab-on-a-chip assay as described herein was used to assay the compounds of the invention.
All HDACs were purchased from BPS Bioscience. All other reagents were purchased from Sigma. Caliper EZ reader II system was used to collect all the data.
In short, purified HDACs were incubated with 2 μM carboxyfluorescein (FAM)-labeled acetylated peptide substrate and test compound for 60 min at room temperature, in HDAC assay buffer that contained 50 mM HEPES (pH 7.4), 100 mM KCl, 0.01% BSA and 0.001% Tween-20. […] Substrate and product were separated electrophoretically and fluorescence intensity in the substrate and product peaks was determined and analyzed by Labchip EZ Reader. The reactions were performed in duplicate for each sample. IC50 values were automatically calculated by Origion8 using 4 Parameter Logistic Model. The percent inhibition was plotted against the compound concentration, and the IC50 value was determined from the logistic dose-response curve fitting by Origin 8.0 software.

As to `Cc1ccc(S(=O)(=O)N2CC=C(C(=O)NO)CC2)cc1` [Compound 31A, N-Hydroxy-1-Tosyl-1,2,3,6-Tetrahydropyridine-4-Carboxamide], the IC50 against HDAC9 stood at 13 µM; at HDAC6, 0.014 µM; against HDAC5, 7.41 µM; on HDAC3 it was 0.099 µM; against HDAC2 it was 0.375 µM; at HDAC7, 11.6 µM. Besides, the IC50 on HDAC4 came to 14.8 µM; against HDAC8, 0.494 µM; on HDAC1, 0.084 µM.
As for `CC1=C(C(=O)NO)Cc2ccccc21` [Compound 29A, N-Hydroxy-3-Methyl-1H-Indene-2-Carboxamide], the IC50 against HDAC9 was determined as 11.2 µM; at HDAC6, 0.049 µM; against HDAC5, 23.6 µM; on HDAC3, 0.713 µM; at HDAC2, 0.584 µM; against HDAC7 it was 17.9 µM. Moreover, the figures for the IC50 against HDAC4, against HDAC8 and on HDAC1 were 16 µM, 1.13 µM and 0.275 µM, respectively.
Take `COc1ccc(CNC2C=C(C(=O)NO)CCC2)cc1` (stereo not shown) [Compound 7A, N-Hydroxy-3-((4-Methoxybenzyl)Amino)Cyclohex-1-Enecarboxamide]: the IC50 against HDAC9 is greater than 33 µM; at HDAC6 it was 2.68 µM; at HDAC5, greater than 33 µM; on HDAC3, greater than 33 µM; on HDAC2, greater than 33 µM; against HDAC7, greater than 33 µM. The IC50 on HDAC4 is greater than 33 µM; on HDAC8, 2.16 µM; at HDAC1, greater than 33 µM.
In the case of `O=C(NO)C1=CCCC1` [Compound 21A, N-Hydroxycyclopent-1-Enecarboxamide], the IC50 was greater than 33 µM on HDAC9; 0.024 µM against HDAC6; 21.1 µM against HDAC5; 0.734 µM at HDAC3; 3.44 µM at HDAC2; 29.7 µM at HDAC4. Further, the results for the IC50 against HDAC8 and against HDAC1 were 1.85 µM and 0.727 µM, respectively.
Turning to `O=C(NO)C1=CCCCC1` [Compound 19A, N-Hydroxycyclohex-1-Enecarboxamide], the IC50 at HDAC9 was found to be 11.7 µM; at HDAC6 it was 0.011 µM; against HDAC5 it was 15.2 µM; at HDAC3 it was 0.493 µM; against HDAC2, 1.4 µM; against HDAC7, 2.32 µM. Moreover, the half-maximal inhibitory concentration (IC50) against HDAC4 amounted to 10.1 µM; on HDAC8, 0.523 µM; at HDAC1 it was 0.423 µM.
On to `COc1ccc(C(=O)N2CCC=C(C(=O)NO)C2)cc1` [Compound 12A], for which the IC50 against HDAC9 is greater than 33 µM; on HDAC6, 6.2 µM; against HDAC5 it was greater than 33 µM; against HDAC3, greater than 33 µM; on HDAC2, greater than 33 µM; at HDAC7, greater than 33 µM. The IC50 against HDAC4 is greater than 33 µM; on HDAC8, 23.2 µM; against HDAC1 it was greater than 33 µM.
With `O=C(NO)C1=C[C@@H](O)[C@@H](O)[C@H](O)C1` [Compound 22A, (3R,4S,5R)-N,3,4,5-Tetrahydroxycyclohex-1-Enecarboxamide], the IC50 at HDAC9, against HDAC6, on HDAC5, at HDAC3, on HDAC2 and at HDAC7 was greater than 33 µM in each case. Moreover, the concentration for half-maximal inhibition (IC50) was greater than 33 µM at HDAC4, 9.14 µM on HDAC8 and greater than 33 µM at HDAC1.
Regarding `O=C(NO)C1=Cc2ccccc2CC1` [Compound 32A, N-Hydroxy-3,4-Dihydronaphthalene-2-Carboxamide], the IC50 against HDAC9 turned out to be 4.08 µM; at HDAC6, 0.014 µM; against HDAC5 it was 14 µM; at HDAC3, 2.32 µM; on HDAC2, 2.6 µM; against HDAC7, 2.46 µM. Moreover, the IC50 against HDAC4 was 4.65 µM; at HDAC8 it was 0.626 µM; against HDAC1 it was 1.86 µM.
`CN1CCC=C(C(=O)NO)C1` [Compound 30A, N-Hydroxy-1-Methyl-1,2,5,6-Tetrahydropyridine-3-Carboxamide]: the IC50 on HDAC9, at HDAC6, on HDAC5, against HDAC3, on HDAC2 and at HDAC7 was greater than 33 µM each time. The IC50 against HDAC4 is greater than 33 µM; against HDAC8 it was 2.63 µM; against HDAC1, greater than 33 µM.
Regarding `O=C(NO)C1=CC(Sc2ccccc2)CCC1` (stereo not shown) [Compound 10A, N-Hydroxy-3-(Phenylthio)Cyclohex-1-Enecarboxamide], the half-inhibitory concentration (IC50) on HDAC9 was found to be 16 µM; against HDAC6, 0.106 µM; on HDAC5 it was 10.9 µM; against HDAC3, 3.22 µM; on HDAC2 it was 1.7 µM; at HDAC7, 6.91 µM. Besides, the IC50 against HDAC4 was 7.93 µM; on HDAC8, 0.055 µM; at HDAC1 it was 2.1 µM.
Regarding `O=C(NO)C1=CCOCC1` [Compound 20A, N-Hydroxy-3,6-Dihydro-2H-Pyran-4-Carboxamide], the concentration for half-maximal inhibition (IC50) is greater than 33 µM on HDAC9; 0.016 µM against HDAC6; 1.4 µM against HDAC3; 1.9 µM on HDAC2; 26.8 µM on HDAC7; greater than 33 µM against HDAC4. Besides, the 50% inhibitory concentration (IC50) against HDAC8 was 1.38 µM; against HDAC1 it was 1.08 µM.

As usually defined, the IC50 is the concentration that gives 50% inhibition. A higher IC50 goes with weaker potency.
